{"source": "patent US11160798B2", "about": "“Neuroprotective CB2 receptor agonists” (THE CLEVELAND CLINIC FOUNDATION, priority 2012, dated 2021)", "key": {"[1]": {"tested_on": "GFAP", "assay": "GFAP immunoreactivity in hippocampal CA1 area (immunostaining, immunoblotting)", "format": "in vivo, rat", "experimental": "(§1) Animals were divided into several groups ([…]). The Aβ1-40 group received bilateral intracerebral microinjection of Aβ1-40 fibrils once and saline intraperitoneally (i.p.) daily for 14 days. The Aβ1-40+MDA7 group received bilateral intracerebral microinjection of Aβ1-40 fibrils once and 15 mg/kg MDA7 i.p. daily for 14 days. Other cohorts received smaller doses of MDA7 (5 mg/kg or 1.5 mg/kg) i.p. daily for 14 days to determine the dose-response characteristics for MDA7. In other groups, AM630 (a CB2 antagonist) 5 mg/kg i.p. was administered daily for 14 days either alone (Aβ1-40+AM630 group) or 15 min prior to MDA7 (15 mg/kg i.p.) administration (Aβ1-40+MDA7+AM630 group) to rats injected with β1-40 fibrils. MDA7 group and control group received bilateral intracerebral microinjection of artificial cerebrospinal fluid (130 mM NaCl, 2.6 mM KCl. 4.3 mM MgCl2 and 1.8 mM CaCl2) once and 15 mg/kg MDA7 or saline i.p. daily for 14 days, respectively. Intraperitoneal administration of AM630, MDA7 or saline started on the same day after intracerebral microinjection of Aβ1-40. All drugs were prepared coded. Decoding was performed at the end of all experiments.\n(§2) Microinjection of amyloid fibrils into the hippocampal CA1 area. Rats were anesthetized with sodium pentobarbital (45 mg/kg i.p.) and restrained in a stereotaxic apparatus. Aβ1-40 fibrils were formed as described previously. […]\n(§3) Immunostaining. […] Three to six sections from each rat were randomly selected and were analyzed using Leica DMLB fluorescence microscope (Leica Microsystems Wetzlar GmbH, Germany) by one investigator, who was blinded to the origin of tissue being examined. Images were quantified using MCID Core software version 7.0 (InterFocus Imaging Ltd, Cambridge, England). […]"}, "[2]": {"tested_on": "cognitive impairment induced by Aβ1-40", "assay": "Morris water maze test in rats microinjected with Aβ1-40 fibrils", "format": "in vivo, rat", "experimental": "Animals and treatment protocol. All animal procedures were approved by the Animal Care and Use Committee of Cleveland Clinic. Animals were housed the Institutional Biological Rodent Unit on a 12/12 h light/dark cycle with water and food pellets available ad libitum. Adult male Sprague-Dawley (Charles River, Wilmington, Mass.) rats weighing 200-250 g were used, and all experiments were performed during the light cycle.\nas §1\nMicroinjection of amyloid fibrils into the hippocampal CA1 area. Rats were anesthetized with sodium pentobarbital (45 mg/kg i.p.) and restrained in a stereotaxic apparatus. Aβ1-40 fibrils were formed as described previously. Chacon, et al., Mol Psychiatry 9(10), 953-61 (2004), Aβ1-40 fibrils (10 μg/3 μl) or 3 μl of artificial cerebrospinal fluid were injected stereotaxically and bilaterally into each hippocampus (coordinates; Bregma −3.5 mm anteroposterior, ±2.0 mm mediolateral, and −3.0 mm dorsoventral) using a 10 μl Hamilton syringe with a 27 G stainless steel needle at a rate of 0.5 μl/min. This experimental model has been used for studying AD. Ahmed, et al., Neuroscience 169(3), 1296-306 (2010).\nMorris water maze test. A cohort of rats (n=10 per group) was tested 15 days after surgery as described by Chacon et al. (ibid). Testing was conducted in all groups at the same time of the day. The experimental apparatus consisted of a circular pool (120 cm in diameter, 45 cm high). An invisible platform (15 cm in diameter, 35 cm high) was placed 1.5 cm below the surface of the water. The water temperature was kept at 24-28° C. The pool was located in a test room, and many clues external to the maze were visible from the pool, which could be used by the rats for spatial orientation. The position of the cues was kept constant throughout the task. Each rat underwent four trials per day for five days. During each trial (memory acquisition), the rats were placed randomly at one of four fixed starting points and were allowed to swim for 120 s or until they escaped from the water by reaching the platform. The platform was located in the same position throughout the test in the middle of one quadrant. The start location was moved to a different quadrant in each trial so that no single start location was used in consecutive trials. In each training session, the latency to escape to the hidden platform was recorded. After the rats reached the platform, they were allowed to rest there for 20 seconds, and they then were removed from the pool. An inter-trial interval of at least 4 minutes was used to ensure that each rat's performance was not impaired by fatigue. After completing four trials, the rats were removed from the pool, dried and returned to their home cage. […]"}, "[3]": {"target": "rCB1 (Rattus norvegicus, UniProt P20272)", "sequence (P20272 whole entry)": "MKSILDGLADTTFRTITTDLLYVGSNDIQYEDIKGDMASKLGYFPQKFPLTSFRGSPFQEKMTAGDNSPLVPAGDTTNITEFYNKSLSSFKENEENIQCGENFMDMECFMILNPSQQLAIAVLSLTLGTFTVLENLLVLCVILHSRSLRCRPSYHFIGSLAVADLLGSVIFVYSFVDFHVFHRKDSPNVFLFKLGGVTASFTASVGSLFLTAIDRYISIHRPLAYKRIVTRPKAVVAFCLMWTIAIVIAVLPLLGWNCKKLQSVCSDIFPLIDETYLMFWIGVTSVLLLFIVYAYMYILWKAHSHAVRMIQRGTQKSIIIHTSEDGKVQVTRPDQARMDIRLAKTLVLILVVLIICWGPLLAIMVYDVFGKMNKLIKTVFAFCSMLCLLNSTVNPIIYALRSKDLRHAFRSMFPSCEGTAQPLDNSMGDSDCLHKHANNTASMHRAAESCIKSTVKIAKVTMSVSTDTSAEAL", "conditions": "cited from earlier work"}, "[4]": {"tested_on": "CD11b", "assay": "CD11b immunoreactivity in hippocampal CA1 area (immunostaining, immunoblotting)", "format": "in vivo, rat", "experimental": "as §1, §2, §3"}, "[5]": {"tested_on": "CB2 receptor", "assay": "CB2 receptor expression in hippocampal CA1 area (immunostaining, immunoblotting)", "format": "in vivo, rat", "conditions": "Aβ1-40-injected rats", "experimental": "as §1, with “Intraperitoneal administration of AM630, MDA7 or saline started on the same day after intracerebral microinjection of Aβ1-40. All drugs were prepared coded. Decoding was performed at the end of all experiments.” left out\nas §3"}, "[6]": {"conditions": "Aβ-injected rats, 14 days i.p. (15 mg/kg), vs saline, hippocampal CA1"}, "[7]": {"conditions": "rats without Aβ1-40, compared to control rats"}}, "note": "Entries after “also recorded” stand apart in the source; their conditions may differ.", "data": [{"compound": "CC1(Cc2ccccc2)COc2cc(C(=O)N3CCCCC3)ccc21", "note": "(centres unmarked) [MDA7, 3-benzyl-3-methyl-2,3-dihydrobenzofuran-6-carboxylic acid-piperidine amide]", "values": [{"measurement": "GFAP immunofluorescence intensity", "setting": "[1]; Aβ1-40-injected rats, 15 mg/kg i.p. for 14 days, vs saline, hippocampal CA1", "result": "significantly less"}, {"measurement": "GFAP protein expression (immunoblot)", "setting": "[1]; [6]", "result": "significantly attenuated"}, {"measurement": "GFAP expression, treatment alone", "setting": "[1]; [7]", "result": "no significant effect"}, {"measurement": "escape latency / memory enhancement in the Morris water maze test", "setting": "[2]; Aβ1-40 fibril-injected rats, 1.5 mg/kg i.p. daily for 14 days", "result": "did not result in any significant memory enhancement"}, {"measurement": "escape latency / memory enhancement in the Morris water maze test", "setting": "[2]; Aβ1-40 fibril-injected rats, 5 mg/kg i.p. daily for 14 days", "result": "limited only to days 3 and 5"}, {"measurement": "escape latency in the Morris water maze test", "setting": "[2]; Aβ1-40 fibril-injected rats, 15 mg/kg i.p. daily for 14 days, vs i.p. saline, days 3-5", "result": "significantly shorter escape latency"}, {"measurement": "probe trial, time spent in the target quadrant", "setting": "[2]; Aβ1-40 fibril-injected rats, 15 mg/kg i.p. for 14 days, vs i.p. saline, day 6, 15 mg/kg", "result": "spent the longest time in the target quadrant; also recorded: significantly longer time in the target quadrant"}, {"measurement": "escape latency, treatment alone", "setting": "[2]; rats microinjected with artificial cerebrospinal fluid, 15 mg/kg for 14 days vs saline i.p.", "result": "no significant difference"}, {"measurement": "EC50 at rCB1", "setting": "[3]", "result": "not active"}, {"measurement": "CD11b immunofluorescence intensity", "setting": "[4]; Aβ1-40-injected rats, i.p. for 14 days, vs saline, hippocampal CA1", "result": "significantly less"}, {"measurement": "CD11b protein expression (immunoblot)", "setting": "[4]; [6]", "result": "significantly attenuated"}, {"measurement": "CD11B expression, treatment alone", "setting": "[4]; [7]", "result": "no significant effect"}, {"measurement": "CB2 receptor expression (immunoblotting)", "setting": "[5]; 15 mg/kg i.p. daily for 14 days", "result": "significantly reversed"}, {"measurement": "CB2 expression (immunofluorescence)", "setting": "[5]; 15 mg/kg i.p. for 14 days, vs saline", "result": "reduced CB2 expression"}]}]}
